The results in this text go back to patent US20070043104A1, “UII-modulating compounds and their use” (priority 2005, published 2007).

The structures appear in SMILES notation. Structures can show the parent of a compound that is named as a salt.

The experiment concerns the target T1, human urotensin II receptor (Homo sapiens, UniProt Q9UKP6).
T1 construct: expressed in transfected cells; host or cells: NIH3T3 cells
T1 sequence (Q9UKP6 1-389): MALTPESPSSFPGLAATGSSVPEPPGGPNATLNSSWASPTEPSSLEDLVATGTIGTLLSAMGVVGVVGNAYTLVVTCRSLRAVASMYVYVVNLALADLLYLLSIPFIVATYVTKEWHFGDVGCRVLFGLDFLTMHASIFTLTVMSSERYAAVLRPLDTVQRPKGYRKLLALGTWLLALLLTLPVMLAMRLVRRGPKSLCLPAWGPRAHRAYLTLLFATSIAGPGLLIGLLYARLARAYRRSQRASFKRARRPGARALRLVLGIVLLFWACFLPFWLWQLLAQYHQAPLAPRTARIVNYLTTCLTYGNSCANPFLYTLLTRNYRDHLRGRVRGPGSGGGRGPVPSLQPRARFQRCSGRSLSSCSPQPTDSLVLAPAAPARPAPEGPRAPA
Put plainly: Receptor Selection and Amplification (R-SAT) functional assay, NIH3T3 cells transfected with human urotensin II receptor and β-galactosidase marker. Conditions: for EC50 / pEC50: Table 3, negative of the log EC50 in molarity, average ± standard deviation (or range) of determinations, eight doses in triplicate; for Emax: NIH3T3, Table 3, percent activation normalized to the reference ligand assigned 100%, read-out: Efficacy. Type of experiment: cell-based. How it is done:
The functional receptor assay, Receptor Selection and Amplification Technology (R-SAT™), was used (with minor modifications from the procedure described previously (Brann, M. R. U.S. Pat. No. 5,707,798, 1998; Chem. Abstr. 1998, 128, 111548) to screen compounds for efficacy at the UII receptor. The RSAT assay was conducted as described herein.
Briefly, NIH3T3 cells were grown in tissue culture treated rollerbottles to 40-80% confluence in Dulbecco's modified Eagle's medium (DMEM) supplemented with 10% bovine calf serum (Hyclone) and 1% penicillin/streptomycin/glutamine (Invitrogen). Cells were transfected for 12-18 hours with the human urotensin II receptor and the β-galactosidase marker. After transfection, the cells were trypsinized, harvested and frozen in DMEM containing 10% DMSO. Frozen cells were later thawed and tested for a response to a control compound to perform quality control before initiation of pharmacological testing, ensuring the correct pharmacological response and sufficient sensitivity. To initiate the pharmacological assay, cells were thawed rapidly and prepared in DMEM media containing 0.4% calf serum (Hyclone), 30% UltraCulture (Biowhittaker), and 1% penicillin/streptomycin/glutamine (Invitrogen), and then plated at 10,000-40,000 cells per well of a 96½ area plate that contained either the test compounds or reference ligands. Cells were then grown in a humidified atmosphere with 5% ambient CO2 for five days. Media was then removed from the plates and marker gene activity was measured by the addition of the beta-galactosidase substrate ONPG (in PBS with 5% NP-40). The resulting colorimetric reaction was measured in a spectrophotometric plate reader (Titertek Inc.) at […].
pEC50 represents the negative logarithm of the concentration of ligand that caused 50% activation of the basal receptor response. Percent activation was calculated as the difference between the absorbance measurements in the absence of added ligand compared with that in the presence of saturating concentrations of ligand normalized to the absorbance difference for the reference ligand, which was assigned a value of 100%.
Results were determined in R-SAT assays and are expressed as pEC50, the negative of the log EC50 in molarity. Results are the average±standard deviation of 2-X determinations of the EC50 where each compound was tested in eight doses in triplicate.

As to `CN(C)CCC(NC(=O)c1ccc(-c2ccccc2)cc1)c1ccc(Cl)cc1.O=C(O)C(=O)O` (single isomer, unassigned; (+)) [(+) 5o, (+)-N-[1-(4-Chlorophenyl)-3-dimethylamino-propyl]-4-phenyl-benzamide oxalate], the EC50 (in general, the concentration at which the effect is half-maximal) is 0.0123 to 0.0275 µM. The Efficacy (Table 3, percent activation normalized to the reference ligand assigned 100%, oxalate) was 104-108%.

Regarding `CN(C)CCC(NC(=O)c1ccc(-c2ccccc2)cc1)c1ccc(Cl)cc1` (single isomer, unassigned; (-)) [(−) 5o, (−)-N-[1-(4-Chlorophenyl)-3-dimethylamino-propyl]-4-phenyl-benzamide oxalate], the Emax was 112 to 114% and the EC50 is 1.15 to 1.2 µM.

Take `CO[C@@H](C(=O)NC(CCN(C)C)c1ccc(Cl)cc1)c1ccccc1` (single isomer, unassigned; (-)) [(−) 5s, oxalate]: the Emax was determined as 165 ± 10% and the midpoint of the response, the EC50, lay at 0.871 µM.

With `Cc1ccccc1C(=O)OC(CCN(C)C)c1ccc(Cl)cc1.Cl` (stereo not shown) [4a, 1-(4-Chlorophenyl)-3-dimethylamino-propyl 2-methyl-benzoate HCl], the Emax was 126 ± 34% and the pEC50 (usually −log10 of the EC50, conventionally taken in molar units) was 5.77 ± 0.01.

As to `CCc1ccccc1C(=O)OC(CCN(C)C)c1ccc(Cl)cc1.Cl` (stereo not shown) [4b, 1-(4-Chlorophenyl)-3-dimethylamino-propyl 2-ethyl-benzoate HCl], the Emax worked out at 128 ± 31% and the pEC50 came out at 5.89 ± 0.05.

In the case of `Cc1ccc(C(=O)OC(CCN(C)C)c2ccc(Cl)cc2)cc1.Cl` (stereo not shown) [4c, 1-(4-Chlorophenyl)-3-dimethylamino-propyl 4-methyl-benzoate HCl], the Emax amounted to 56 ± 6% and the negative logarithm of the EC50 (pEC50) is listed as 5.56 ± 0.01.

In the case of `Cc1cccc(C(=O)OC(CCN(C)C)c2ccc(Cl)cc2)c1C` (stereo not shown) [4d, 1-(4-Chlorophenyl)-3-dimethylamino-propyl 2,3-dimethyl-benzoate HCl], the Emax was found to be 94 ± 42% and the EC50 is 1.26 µM.

Regarding `COc1cccc(C(=O)OC(CCN(C)C)c2ccc(Cl)cc2)c1C` (stereo not shown) [4e, 1-(4-Chlorophenyl)-3-dimethylamino-propyl 3-methoxy-2-methyl-benzoate HCl], the Emax is 120 ± 57% and the midpoint of the response, the EC50, lay at 2.09 µM.

With `Cc1c(Cl)cccc1C(=O)OC(CCN(C)C)c1ccc(Cl)cc1.Cl` (stereo not shown) [4f, 1-(4-Chlorophenyl)-3-dimethylamino-propyl 3-chloro-2-methyl-benzoate HCl], the Emax is 118 ± 37% and the pEC50 was found to be 5.95 ± 0.05.

With `Cc1cc(Br)ccc1C(=O)OC(CCN(C)C)c1ccc(Cl)cc1.Cl` (stereo not shown) [4g, 1-(4-Chlorophenyl)-3-dimethylamino-propyl 4-bromo-2-methyl-benzoate HCl], the Emax turned out to be 95 ± 37% and the negative-log EC50 (pEC50) was found to be 5.97 ± 0.24.

Take `Cc1ccc(C)c(C(=O)OC(CCN(C)C)c2ccc(Cl)cc2)c1.Cl` (stereo not shown) [4h, 1-(4-Chlorophenyl)-3-dimethylamino-propyl 2,5-dimethyl-benzoate HCl]: the Emax was 86% and the pEC50 is given as 5.73 ± 0.15.

As for `Cc1cc(C)c(C(=O)OC(CCN(C)C)c2ccc(Cl)cc2)cc1C.Cl` (stereo not shown) [4i, 1-(4-Chlorophenyl)-3-dimethylamino-propyl 2,4,5-trimethyl-benzoate HCl], the Emax worked out at 60 ± 4% and the pEC50 stood at 6.33 ± 0.6.

Take `Cc1ccsc1C(=O)OC(CCN(C)C)c1ccc(Cl)cc1.Cl` (stereo not shown) [4j, 1-(4-Chlorophenyl)-3-dimethylamino-propyl 3-methyl-thiophene-2-carboxylate HCl]: the Emax was 119 ± 44% and the pEC50 was 5.60 ± 0.05.

On to `CN(C)CCC(OC(=O)c1cccc2ccccc12)c1ccc(Cl)cc1.Cl` (stereo not shown) [4k, 1-(4-Chlorophenyl)-3-dimethylamino-propyl naphthalene-1-carboxylate HCl], for which the Emax turned out to be 95 ± 24% and the pEC50 stood at 5.64 ± 0.02.

For `CN(C)CCC(OC(=O)c1ccc2ccccc2c1)c1ccc(Cl)cc1.Cl` (stereo not shown) [4l, 1-(4-Chlorophenyl)-3-dimethylamino-propyl naphthalene-2-carboxylate HCl], the Emax was 49 ± 28% and the pEC50 was determined as 5.68 ± 0.04.

Take `CN(C)CCC(OC(=O)c1ccc(-c2ccccc2)cc1)c1ccc(Cl)cc1.Cl` (stereo not shown) [4m, 1-(4-Chlorophenyl)-3-dimethylamino-propyl 4-phenyl-benzoate HCl]: the Emax turned out to be 53 ± 27% and the pEC50 amounted to 6.28 ± 0.14.

`CN(C)CCC(OC(=O)c1cc2ccccc2n1C)c1ccc(Cl)cc1` (stereo not shown) [4n, 1-(4-Chlorophenyl)-3-dimethylamino-propyl 1-methyl-indole-2-carboxylate HCl]: the Emax was 104 ± 34% and a half-maximal effect (EC50) was put at 1.91 µM.

`CN(C)CCC(OC(=O)c1cn(C)c2ccccc12)c1ccc(Cl)cc1` (stereo not shown) [4o, 1-(4-Chlorophenyl)-3-dimethylamino-propyl 1-methyl-indole-3-carboxylate HCl]: the Emax turned out to be 115 ± 71% and the EC50 was 1.62 µM.

In the case of `COc1ccc(C(=O)OC(CCN(C)C)c2ccc(Cl)cc2)cc1` (stereo not shown) [4p, 1-(4-Chlorophenyl)-3-dimethylamino-propyl 4-methoxy-benzoate oxalate], the Emax lay within 52 to 101% and the EC50 was 1.55 to 3.72 µM.

With `CN(C)CCC(OC(=O)c1ccc(C(F)(F)F)cc1)c1ccc(Cl)cc1` (stereo not shown) [4q, 1-(4-Chlorophenyl)-3-dimethylamino-propyl 4-trifluoromethyl-benzoate oxalate], the Emax fell in the range of 36 to 38% and the EC50 is 1.17 to 2.09 µM.

`CN(C)CCC(NC(=O)c1ccccc1)c1ccc(Cl)cc1.Cl` (stereo not shown) [5a, N-[1-(4-Chlorophenyl)-3-dimethylamino-propyl]-benzamide HCl]: the Emax turned out to be 158 ± 39% and the pEC50 was 5.85 ± 0.01.

Turning to `Cc1ccccc1C(=O)NC(CCN(C)C)c1ccc(Cl)cc1.O=C(O)C(=O)O` (stereo not shown) [5b, N-[1-(4-Chlorophenyl)-3-dimethylamino-propyl]-2-methyl-benzamide oxalate], the Emax was 175 ± 15% and the pEC50 came out at 5.45 ± 0.04.

For the molecule `CCc1ccccc1C(=O)NC(CCN(C)C)c1ccc(Cl)cc1` (stereo not shown) [5c, N-[1-(4-Chlorophenyl)-3-dimethylamino-propyl]-2-ethyl-benzamide oxalate], the Emax was determined as 140 ± 14% and a half-maximal response (EC50) required 1.02 µM.

For the molecule `COc1ccc(C(=O)NC(CCN(C)C)c2ccc(Cl)cc2)cc1.O=C(O)C(=O)O` (stereo not shown) [5d, N-[1-(4-Chlorophenyl)-3-dimethylaminopropyl]-4-methoxy-benzamide oxalate], the Emax was determined as 148 ± 33% and the pEC50 stood at 5.87 ± 0.2.

Turning to `CN(C)CCC(NC(=O)c1ccc(N(C)C)cc1)c1ccc(Cl)cc1.O=C(O)C(=O)O` (stereo not shown) [5e, N-[1-(4-Chlorophenyl)-3-dimethylaminopropyl]-4-dimethylamino-benzamide oxalate], the Emax turned out to be 145 ± 25% and the negative logarithm of the EC50 (pEC50) is given as 5.87 ± 0.17.

For the molecule `Cc1cccc(C(=O)NC(CCN(C)C)c2ccc(Cl)cc2)c1C.O=C(O)C(=O)O` (stereo not shown) [5f, N-[1-(4-Chlorophenyl)-3-dimethylamino-propyl]-2,3-dimethyl-benzamide oxalate], the Emax was 159 ± 1% and the pEC50 was 5.44 ± 0.08.

As for `COc1cccc(C(=O)NC(CCN(C)C)c2ccc(Cl)cc2)c1C.O=C(O)C(=O)O` (stereo not shown) [5g, N-[1-(4-Chlorophenyl)-3-dimethylamino-propyl]-3-methoxy-2-methyl-benzamide oxalate], the Emax was 179 ± 11% and the pEC50 amounted to 5.37 ± 0.14.

In the case of `Cc1c(Cl)cccc1C(=O)NC(CCN(C)C)c1ccc(Cl)cc1.O=C(O)C(=O)O` (stereo not shown) [5h, N-[1-(4-Chlorophenyl)-3-dimethylamino-propyl]-3-chloro-2-methyl-benzamide oxalate], the Emax was 142 ± 14% and the pEC50 is 5.76 ± 0.13.

With `Cc1ccc(C(=O)NC(CCN(C)C)c2ccc(Cl)cc2)c(C)c1.O=C(O)C(=O)O` (stereo not shown) [5i, N-[1-(4-Chlorophenyl)-3′-dimethylamino-propyl]-2,4-dimethyl-benzamide oxalate], the Emax came out at 147 ± 29% and the pEC50 is 5.81 ± 0.06.
